Two compounds from paper PMC11459959, “Discovery of new acetamide derivatives of 5-indole-1,3,4-oxadiazol-2-thiol as inhibitors of HIV-1 Tat-mediated viral transcription” (Antimicrobial Agents and Chemotherapy, 2024) can be followed below.

Experiment [1] deals with NRTI-resistant HIV-1 strain 7396. As to the kind of experiment: microbe, parasite or virus in culture. It counts as cell-based. Conditions: Human immunodeficiency virus 1, TZM-bl.
For experiment [2], the system named is NRTI-resistant HIV-1 strain 7406. As to the kind of experiment: microbe, parasite or virus in culture. It counts as cell-based. Conditions: Human immunodeficiency virus 1, TZM-bl.
The subject of experiment [3] is NRTI-resistant HIV-1 strain 7407. As to the kind of experiment: microbe, parasite or virus in culture. It counts as cell-based. Conditions: Human immunodeficiency virus 1, TZM-bl.
For experiment [4], the system named is PI-resistant HIV-1 strain 11800. As to the kind of experiment: microbe, parasite or virus in culture. It counts as cell-based. Conditions: Human immunodeficiency virus 1, TZM-bl.
Experiment [5] concerns PI-resistant HIV-1 strain 11803. As to the kind of experiment: microbe, parasite or virus in culture. Particulars: Human immunodeficiency virus 1, TZM-bl. It counts as cell-based.
For experiment [6], the system named is PI-resistant HIV-1 strain 11800. As to the kind of experiment: microbe, parasite or virus in culture. It counts as cell-based. Particulars: Human immunodeficiency virus 1, PBMC. The source says: (§1) The Tzm-bl-derived dual Tat reporter; TZM-bl/Tat/Rluc (bl-DTR) cells were established from TZM-bl cells using two Dox-inducible lentiviral expression cassettes cloned with Flag-tagged Tat86 and the R-Luc gene, as described in our previous study ([11]). TZM-bl, A3.01, J1.1, and J-Lat 6.3 cells as well as the HIV-1 molecular clone pNL4-3, pNL(AD8), ARV-resistant HIV-1 strains, and HIV-1NL43-IRES-eGFP (pBR43IeG-nef^+, gifted by Dr. Frank Kirchhoff) ([52]) were provided by the National Institute of Health HIV Reagent Program (NIH, Bethesda, MD, USA). HeLa (CCL-2) and 293T (CRL-3216) cell lines were purchased from the American Type Culture Collection (ATCC, Manassas, VA, USA). The bl-DTR, TZM-bl, HeLa, and 293T cells were cultured in Dulbecco’s modified Eagle’s medium supplemented with 1% penicillin–streptomycin and 10% (vol/vol) heat-inactivated fetal bovine serum (all from Gibco-BRL, Gaithersburg, MD, USA), and 1 µg/mL of puromycin and 200 µg/mL of zeocin were additionally supplemented for the bl-DTR cells. PBMCs were purchased from AllCells (Alameda, CA, USA) and cultured as previously described ([12]). The information on ARV-resistant HIV-1 strains was described in previous reports as follows: NNRTI-resistant 12241 and 12243 ([53]); NRTI-resistant 7396, 7406, and 7407 ([54]); INSTI-resistant 11847 and 11849 ([55], [56]); and PI-resistant 11800 and 11803 ([57]). Each molecular HIV-1 clone was transfected to 293T cells, as previously described ([58]), to obtain infectious HIV-1 particles. Virus-containing cell culture supernatants were collected 3 days after transfection, and filtered through a 0.45-µm membrane filter (Millipore Sigma, Burlington, MA, USA) to remove cell debris. The viral titration was performed as described previously ([59]) with some minor modifications. In brief, 1 × 10^4 TZM-bl cells seeded in 96-well plates were infected with 200 µL of virus-containing medium diluted serially twofold. The incubation was for 2 days and the experiment was performed in triplicate; the infection time minimized the virus spread ([59]). The titration of the infectious viral particles was performed with a ß-Gal staining assay using the ßeta-Galactosidase Staining Kit (Mirus Bio, Madison, WI, USA) following the manufacturer’s protocols. In brief, the infected cells were washed with phosphate-buffered saline (PBS) and fixed using a Cell Fixative Working solution. The cells were washed with PBS and stained using the Cell Staining Working Solution containing X-gal. The infected blue-colored cells were counted under a microscope (100× magnification). The infectious virus titer was determined as a mean value of blue-colored cells count × dilution factor and used for determining the multiplicity of infection (MOI) in each infection experiment.
(§2) The inhibitory effects of the compounds on viral replication were determined with some minor modifications, as previously described ([12], [62]). […] PBMCs (4 × 10^5) pre-activated with PHA-M for 3 days were washed with fresh media to remove excess PHA-M and subsequently infected with HIV-1NL4-3 or HIV-1AD8 or PIs-resistant HIV-1 strains as A3.01 infection. After infection, the infectious media were replaced with fresh media supplemented with international 10 units (IU)/mL of IL-2 and the indicated compounds. At 72 h after infection, the inhibitory effect of the compounds on viral replication was determined by measuring the p24 amount, an HIV capsid protein, using an HIV-1 p24 […] kit (PerkinElmer, Waltham, MA, USA). Cell viability was determined as described above. The inhibitory effects on provirus reversing in J1.1 and J-Lat 6.3 cells were determined as previously described ([12], [41], [63]) with some minor modifications.

For experiment [7], the system named is PI-resistant HIV-1 strain 11803. As to the kind of experiment: microbe, parasite or virus in culture. It counts as cell-based. Particulars: Human immunodeficiency virus 1, PBMC.
Description: as §1, §2

The subject of experiment [8] is Tat protein. As to the kind of experiment: Nuclear localization of Tat protein, cell fractionation and western blotting. Particulars: 1.5 μM, transfected cells. It counts as cell-based, HIV-1.
In experiment [9] the test system is Tat protein. As to the kind of experiment: Tat protein level in transfected HeLa cells, western blotting. Conditions: HeLa cells transfected with pcDNA3-Flag-Tat86, 1.5 µM, 2 days.
Description: (C) HeLa cells were transfected with pcDNA3-Flag-Tat86 plasmid. […] The levels of Tat protein were analyzed by western blotting using antibodies against Flag and α-tubulin.
The protein levels of the cell lysates were analyzed using western blotting as previously described ([12]). In brief, whole-cell lysates and samples fractionated in nuclear or cytoplasm were prepared with a 5× SDS sample buffer and subsequently subjected to SDS-polyacrylamide gel electrophoresis. Proteins were subsequently transferred onto polyvinylidene difluoride membranes (Millipore).

For `Cc1[nH]c2ccc(-c3nnc(SCC(=O)N4CCCCC4)o3)cc2c1C` [Compound 9, 2-((5-(2,3-Dimethyl-1H-indol-5-yl)-1,3,4-oxadiazol-2-yl)thio)-1-(piperidin-1-yl)ethan-1-one], the EC50 was determined as 70 nM in [1]; 90 ± 10 nM in experiment [2]; 70 ± 10 nM in [3]; 80 ± 10 nM in experiment [4]; 70 ± 10 nM in [5]; 540 ± 250 nM in [6]. The EC50 in experiment [7] turned out to be 260 ± 80 nM. Besides, the “change in nuclear localization of the Tat protein” value in the experiment with Tat protein [8] is “no changes were observed”. For the same compound, in the experiment on Tat protein [9], the “decrease of expression of Tat protein” value is given as “did not exhibit a decrease”.
Turning to `Cc1[nH]c2ccc(-c3nnc(SCC(=O)N4CCCC4)o3)cc2c1C` [Compound 13, 2-((5-(2,3-Dimethyl-1H-indol-5-yl)-1,3,4-oxadiazol-2-yl)thio)-1-(pyrrolidin-1-yl)ethan-1-one], the EC50 in [1] amounted to 150 ± 10 nM; in experiment [2], 160 ± 20 nM; in experiment [3], 190 ± 10 nM; in experiment [4], 130 ± 100 nM; in experiment [5] it was 160 ± 20 nM; in [6] it was 810 ± 30 nM. In experiment [7], a half-maximal effect (EC50) was put at 280 ± 40 nM. Moreover, in the experiment on Tat protein [8], the “change in nuclear localization of the Tat protein” value is on record as “no changes were observed”. The “decrease of expression of Tat protein” value with Tat protein [9] is listed as “did not exhibit a decrease”.
